Reference: the NIST ThermoML archive (doi:10.1016/j.jct.2016.07.005)
Numbers after ± are expanded uncertainties.

Assay: xn = mol fraction of the nth substance listed
Conditions: 100 kPa, Liquid; for viscosity: Concentric cylinders viscometry; for mass density: Vibrating tube method

CN1CCC[C@H]1c1cccnc1 [(-)-3-(N-methylpyrrolidino)pyridine] + CC(O)CO
Conditions	mass density [kg/m3]	viscosity [mPa·s]
293.15 K, x1 = 0.1	1035.04 ± 1	59.35 ± 1.2
293.15 K, x1 = 0.2009	1033.1 ± 1	53.52 ± 1.1
293.15 K, x1 = 0.3	1030.49 ± 1	44.85 ± 0.92
293.15 K, x1 = 0.4016	1027.64 ± 1	35.02 ± 0.72
293.15 K, x1 = 0.5	1024.73 ± 1	26.04 ± 0.54
293.15 K, x1 = 0.6005	1021.54 ± 1	18.44 ± 0.38
293.15 K, x1 = 0.7	1018.73 ± 1	12.89 ± 0.27
293.15 K, x1 = 0.7983	1015.98 ± 1	9.269 ± 0.19
293.15 K, x1 = 0.9	1012.96 ± 1	6.875 ± 0.14
293.15 K, x1 = 1	1010.23 ± 1	4.694 ± 0.098
298.15 K, x1 = 0.1	1031.1 ± 1	43.28 ± 0.89
298.15 K, x1 = 0.2009	1029.06 ± 1	38.88 ± 0.8
298.15 K, x1 = 0.3	1026.32 ± 1	32.72 ± 0.67
298.15 K, x1 = 0.4016	1023.44 ± 1	25.84 ± 0.53
298.15 K, x1 = 0.5	1020.54 ± 1	19.6 ± 0.4
298.15 K, x1 = 0.6005	1017.36 ± 1	14.25 ± 0.29
298.15 K, x1 = 0.7	1014.59 ± 1	10.27 ± 0.21
298.15 K, x1 = 0.7983	1011.83 ± 1	7.576 ± 0.16
298.15 K, x1 = 0.9	1008.87 ± 1	5.707 ± 0.12
298.15 K, x1 = 1	1006.16 ± 1	4.048 ± 0.085
303.15 K, x1 = 0.1	1027.18 ± 1	32.21 ± 0.66
303.15 K, x1 = 0.2009	1025 ± 1	28.85 ± 0.59
303.15 K, x1 = 0.3	1022.19 ± 1	24.37 ± 0.5
303.15 K, x1 = 0.4016	1019.27 ± 1	19.44 ± 0.4
303.15 K, x1 = 0.5	1016.35 ± 1	14.99 ± 0.31
303.15 K, x1 = 0.6005	1013.17 ± 1	11.16 ± 0.23
303.15 K, x1 = 0.7	1010.42 ± 1	8.284 ± 0.17
303.15 K, x1 = 0.7983	1007.68 ± 1	6.286 ± 0.13
303.15 K, x1 = 0.9	1004.77 ± 1	4.834 ± 0.1
303.15 K, x1 = 1	1002.1 ± 1	3.518 ± 0.074
308.15 K, x1 = 0.1	1023.28 ± 1	24.46 ± 0.5
308.15 K, x1 = 0.2009	1020.91 ± 1	21.87 ± 0.45
308.15 K, x1 = 0.3	1018.08 ± 1	18.56 ± 0.38
308.15 K, x1 = 0.4016	1015.09 ± 1	14.98 ± 0.31
308.15 K, x1 = 0.5	1012.14 ± 1	11.73 ± 0.24
308.15 K, x1 = 0.6005	1008.98 ± 1	8.935 ± 0.18
308.15 K, x1 = 0.7	1006.13 ± 1	6.791 ± 0.14
308.15 K, x1 = 0.7983	1003.54 ± 1	5.264 ± 0.11
308.15 K, x1 = 0.9	1000.64 ± 1	4.12 ± 0.086
308.15 K, x1 = 1	998.055 ± 1	3.088 ± 0.065
313.15 K, x1 = 0.1	1019.3 ± 1	18.79 ± 0.38
313.15 K, x1 = 0.2009	1016.8 ± 1	16.79 ± 0.34
313.15 K, x1 = 0.3	1013.89 ± 1	14.33 ± 0.29
313.15 K, x1 = 0.4016	1010.88 ± 1	11.69 ± 0.24
313.15 K, x1 = 0.5	1007.92 ± 1	9.302 ± 0.19
313.15 K, x1 = 0.6005	1004.79 ± 1	7.224 ± 0.15
313.15 K, x1 = 0.7	1002.03 ± 1	5.605 ± 0.12
313.15 K, x1 = 0.7983	999.39 ± 1	4.425 ± 0.092
313.15 K, x1 = 0.9	996.55 ± 1	3.532 ± 0.074
313.15 K, x1 = 1	994.014 ± 1	2.758 ± 0.058
318.15 K, x1 = 0.1	1015.29 ± 1	14.91 ± 0.3
318.15 K, x1 = 0.2009	1012.66 ± 1	13.34 ± 0.27
318.15 K, x1 = 0.3	1009.7 ± 1	11.45 ± 0.23
318.15 K, x1 = 0.4016	1006.65 ± 1	9.438 ± 0.19
318.15 K, x1 = 0.5	1003.69 ± 1	7.62 ± 0.16
318.15 K, x1 = 0.6005	1000.58 ± 1	6.031 ± 0.12
318.15 K, x1 = 0.7	997.85 ± 1	4.779 ± 0.099
318.15 K, x1 = 0.7983	995.25 ± 1	3.839 ± 0.08
318.15 K, x1 = 0.9	992.46 ± 1	3.094 ± 0.065
318.15 K, x1 = 1	989.984 ± 1	2.411 ± 0.051
323.15 K, x1 = 0.1	1011.25 ± 1	12.03 ± 0.25
323.15 K, x1 = 0.2009	1008.51 ± 1	10.78 ± 0.22
323.15 K, x1 = 0.3	1005.48 ± 1	9.306 ± 0.19
323.15 K, x1 = 0.4016	1002.41 ± 1	7.746 ± 0.16
323.15 K, x1 = 0.5	999.45 ± 1	6.339 ± 0.13
323.15 K, x1 = 0.6005	996.37 ± 1	5.104 ± 0.11
323.15 K, x1 = 0.7	993.67 ± 1	4.124 ± 0.086
323.15 K, x1 = 0.7983	991.1 ± 1	3.375 ± 0.07
323.15 K, x1 = 0.9	988.38 ± 1	2.765 ± 0.058
323.15 K, x1 = 1	985.962 ± 1	2.195 ± 0.046
